# From patent US9481648B2, “Kinase inhibitors” (Respivert Limited, priority 2013, dated 2016)
# Target: GSK 3α (Homo sapiens (Human), UniProt P49840)
# Assay: GSK 3α enzyme inhibition (FRET, Z-LYTE; Method 2)
# Type: biochemical
# Conditions: read-out: IC50 Values for Enzyme Inhibition GSK3α
# Protocol: The enzyme inhibitory activities of compounds disclosed herein are determined by FRET using synthetic peptides labelled with both donor and acceptor fluorophores (Z-LYTE, Invitrogen Ltd., Paisley, UK).
# The inhibitory activities of compounds of the invention against the GSK 3α enzyme isoform (Invitrogen), are evaluated by determining the level of activation I phosphorylation of the target peptide. The GSK3-α protein (500 ng/mL, 2.5 μL) is mixed with the test compound (2.5 μL at either 4 μg/mL, 0.4 μg/mL, 0.04 μg/mL, or 0.004 μg/mL) for 2 hr at RT. The FRET peptide (8 μM, 2.5 μL), which is a phosphorylation target for GSK3α, and ATP (40 μM, 2.5 μL) are then added to the enzyme\compound mixture and the resulting mixture incubated for 1 hr. Development reagent (protease, 5 μL) is added for 1 hr prior to detection in a fluorescence microplate reader (Varioskan® Flash, ThermoFisher Scientific).
# In all cases, the site-specific protease cleaves non-phosphorylated peptide only and eliminates the FRET signal. Phosphorylation levels of each reaction are calculated using the ratio of coumarin emission (donor) over fluorescein emission (acceptor), for which high ratios indicate high phosphorylation and low ratios indicate low phosphorylation levels.
# This method follows the same steps as Method 1 above, but utilises a shorter period of mixing of the test compound (105 minutes instead of 2 hours) with the GSK3-α protein. In addition, the concentrations of test compound employed are either 10 μg/mL, 1 μg/mL, 0.1 μg/mL, or 0.01 μg/mL
# Chain of GSK 3α (P49840 whole entry): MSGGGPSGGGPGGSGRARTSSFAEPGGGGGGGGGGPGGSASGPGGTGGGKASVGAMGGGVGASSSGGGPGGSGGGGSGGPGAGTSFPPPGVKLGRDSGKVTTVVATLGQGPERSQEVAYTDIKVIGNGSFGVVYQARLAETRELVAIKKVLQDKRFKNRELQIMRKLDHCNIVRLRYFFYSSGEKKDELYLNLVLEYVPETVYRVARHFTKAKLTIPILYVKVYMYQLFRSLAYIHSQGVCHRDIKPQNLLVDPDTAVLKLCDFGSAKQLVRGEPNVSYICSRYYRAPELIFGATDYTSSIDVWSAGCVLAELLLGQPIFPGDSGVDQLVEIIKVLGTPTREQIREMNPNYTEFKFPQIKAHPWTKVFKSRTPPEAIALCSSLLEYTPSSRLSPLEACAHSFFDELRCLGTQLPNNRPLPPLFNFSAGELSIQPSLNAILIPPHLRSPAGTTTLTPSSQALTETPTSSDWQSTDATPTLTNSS
row,IC50 [nM],SMILES
1,1020,"COc1cc(Nc2cc(Oc3ccc(NC(=O)Nc4cc(C(C)(C)C)cc(NS(C)(=O)=O)c4OC)c4ccccc34)ccn2)cc(C(=O)NCCN2CCCC2)c1 [83(d), 3-((4-((4-(3-(5-(tert-butyl)-2-methoxy-3-(methysulfonamido)phenyl)ureido)naphthalen-1-yl)oxy)pyridin-2-yl)amino)-5-methoxy-N-(2-(pyrrolidin-1-yl)ethyl)benzamide]"
2,1590,"COc1cc(Nc2cc(Oc3ccc(NC(=O)Nc4cc(C(C)(C)C)cc(NS(C)(=O)=O)c4OC)c4ccccc34)ccn2)cc(C(=O)NCCN2CCCCC2)c1 [83(e), 3-((4-((4-(3-(5-(tert-butyl)-2-methoxy-3-(methylsulfonamido)phenyl)ureido)naphthalen-1-yl)oxy)pyridin-2-yl)amino)-5-methoxy-N-(2-(piperidin-1-yl)ethyl)benzamide]"
3,14400,"COc1c(NC(=O)Nc2ccc(Oc3ccnc(Nc4ccccc4)c3)c3ccccc23)cc(C(C)(C)C)cc1NS(=O)(=O)N1CCOCC1 [83(f), N-(5-(tert-butyl)-2-methoxy-3-(3-(4-((2-(phenylamino)pyridin-4-yl)oxy)naphthalen-1-yl)ureido)phenyl)morpholine-4-sulfonamide]"
4,4510,"COc1c(NC(=O)Nc2ccc(Oc3ccnc(Nc4ccccc4)c3)c3ccccc23)cc(C(C)(C)C)cc1C(=O)NC1CCN(C)CC1 [84(b), 3-[[4-[(2-Anilino-4-pyridyl)oxy]-1-naphthyl]carbamoylamino]-5-tert-butyl-2-methoxy-N-(1-methyl-4-piperidyl)benzamide]"
5,4950,"COc1c(NC(=O)Nc2ccc(Oc3ccnc(Nc4ccccc4)c3)c3ccccc23)cc(C(C)(C)C)cc1C(=O)N[C@@H]1CCOC1 [84(c), 3-[[4-[(2-Anilino-4-pyridyl)oxy]-1-naphthyl]carbamoylamino]-5-tert-butyl-2-methoxy-N-[(3R)-tetrahydrofuran-3-yl]benzamide]"
6,3400,"COc1cc(CO)cc(Nc2cc(Oc3ccc(NC(=O)Nc4cc(C(C)(C)C)cc(NS(C)(=O)=O)c4OC)c4ccccc34)ccn2)c1 [84(f), 1-[5-tert-Butyl-3-(methanesulfonamido)-2-methoxyphenyl]-3-[4-[[2-[3-(hydroxymethyl)-5-methoxyanilino]-4-pyridyl]oxy]-1-naphthyl]urea]"
7,437,"C#Cc1cc(Nc2nccc(Oc3ccc(NC(=O)Nc4cc(C(C)(C)C)cc(C(N)=O)c4OC)c4ccccc34)n2)cc(C(=O)NCCN2CCOCC2)c1 [85(g), 5-tert-Butyl-3-[[4-[2-[3-ethynyl-5-(2-morpholinoethylcarbamoyl)anilino]-pyrimidin-4-yl]oxy-1-naphthyl]carbamoylamino]-2-methoxy-benzamide]"
8,736,"COc1cc(Nc2cc(Oc3ccc(NC(=O)Nc4cc(C(C)(C)C)cc(NS(C)(=O)=O)c4OC)c4ccccc34)ccn2)cc(C(=O)NCCN2CC[S+]([O-])CC2)c1 [85(j), 3-[[4-[[4-[[5-tert-Butyl-3-(methanesulfonanido)-2-methoxyphenyl]-carbamoylamino]-1-naphthyl]oxy]-2-pyridyl]amino]-5-methoxy-N-[2-(1-oxo-1,4-thiazinan-4-yl)ethyl]benzamide]"
9,9940,"COCCOCCOCCOc1cc(Nc2nccc(Oc3ccc(NC(=O)Nc4cc(C(C)(C)C)ccc4OC)c4ccccc34)n2)cc(OC)c1 [Example 8, 1-(5-(tert-Butyl)-2-methoxhenv)-3-(4-((2-((3-methoxy-5-(2-(2-(2-methoxyethoxy)ethoxy)-ethoxy)phenyl)amino)pyrimidin-4-yl)oxy)naphthalen-1-yl)urea]"
10,11300,"COCCOCCOCCOc1cc(Nc2nccc(Oc3ccc(NC(=O)Nc4cc(N5CCOCC5)ccc4OC)c4ccccc34)n2)cc(OC)c1 [Example 12, 1-(4-((2-((3-Methoxy-5-(2-(2-(2-methoxyethoxy)ethoxy)ethoxy)phenyl)amino)-pyrmidin-4-yl)oxy)naphthalen-1-yl)-3-(2-methoxy-5-morpholinophenyl)urea]"
11,1630,"COCCOCCOCCOc1cc(Nc2nccc(Oc3ccc(NC(=O)Nc4cc(C(C)(C)C)cc(C(=O)O)c4OC)c4ccccc34)n2)cc(OC)c1 [Example 21, 5-(tert-Butyl)-2-methoxy-3-(3-(4-((2-((3-methoxy-5-(2-(2-(2-methoxyethoxy)ethoxy)-ethoxy)phenyl)amino)pyrimidin-4-yl)oxy)naphthalen-1-yl)ureido)benzoic acid]"
12,2140,"COCCOCCOCCOc1cc(Nc2nccc(Oc3ccc(NC(=O)Nc4cc(C(C)(C)C)cc(C#N)c4OC)c4ccccc34)n2)cc(OC)c1 [Example 22, 1-(5-(tert-Butyl)-3-cyano-2-methoxyphenyl)-3-(4-((2-((3-methoxy-5-(2-(2-(2-methoxy-ethoxy)ethoxy)ethoxy)phenyl)amino)pyrimidin-4-yl)oxy)naphthalen-1-yl)urea]"
13,1890,"COCCOCCOCCOc1cc(Nc2nccc(Oc3ccc(NC(=O)Nc4cc(C(C)(C)C)cc(N)c4OC)c4ccccc34)n2)cc(OC)c1 [Example 25, 1-(3-Amino-5-(tert-butyl)-2-methoxyphenyl)-3-(4-((2-((3-methoxy-5-(2-(2-(2-methoxy-ethoxy)ethoxy)ethoxy)phenyl)amino)pyrimidin-4-yl)oxy)naphthalen-1-yl)urea]"
14,51,COc1cc(Nc2nccc(Oc3ccc(NC(=O)Nc4cc(C(C)(C)C)cc(NS(C)(=O)=O)c4OC)c4ccccc34)n2)cc(C(=O)NCCOCCOCCC(=O)O)c1 [Example 26]
15,3210,"COCCOCCOCCOc1cc(Nc2nccc(Oc3ccc(NC(=O)Nc4cc(C(C)(C)C)cc(Nc5ncccn5)c4OC)c4ccccc34)n2)cc(OC)c1 [Example 28, 1-(5-(tert-Butyl)-2-methoxy-3-(pyrimidin-2-ylamino)phenyl)-3-(4-((2-((3-methoxy-5-(2-(2-(2-methoxyethoxy)ethoxy)ethoxy)phenyl)amino)pyrimidin-4-yl)oxy)naphthalen-1-yl)urea]"
16,150,"COc1cc(Nc2nccc(Oc3ccc(NC(=O)Nc4cc(C(C)(C)C)cc(NS(C)(=O)=O)c4OC)c4ccccc34)n2)cc(OCCOCCOCCC(=O)O)c1 [Example 30, 3-(2-(2-(3-((4-((4-(3-(5-(tert-Butyl)-2-methoxy-3-(methylsulfonamido)phenyl)ureido)-naphthalen-1-yl)oxy)pyrimidin-2-yl)amino)-5-methoxyphenoxy)ethoxy)ethoxy)propanoic acid]"
17,135,"COc1cc(Nc2nccc(Oc3ccc(NC(=O)Nc4cc(C(C)(C)C)cc(NS(C)(=O)=O)c4OC)c4ccccc34)n2)cc(OCCOCCC(=O)O)c1 [Example 31, 3-(2-(3-((4-((4-(3-(5-(tert-Butyl)-2-methoxy-3-(methylsulfonamido)phenyl)ureido)-naphthalen-1-yl)oxy)pyrimidin-2-yl)amino)-5-methoxyphenoxy)ethoxy)propanoic acid]"
18,379,"COCCOCCOCCOCCOCCOCCOCCNC(=O)c1cc(Nc2nccc(Oc3ccc(NC(=O)Nc4cc(C(C)(C)C)cc(NS(C)(=O)=O)c4OC)c4ccccc34)n2)cc(OC)c1 [Example 40, 3-((4-((4-(3-(5-(tert-Butyl)-2-methoxy-3-(methylsulfonamido)phenyl)ureido)naphthalen-1-yl)oxy)pyrimidin-2-yl)amino)-N-(2,5,8,11,14,17,20-heptaoxadocosan-22-yl)-5-methoxy-benzamide]"

row,SMILES,IC50 [nM]
1,"COCCOCCOCCOc1cc(Nc2cc(Oc3ccc(NC(=O)Nc4cc(C(C)(C)C)cc(C(=O)NCCN)c4OC)c4ccccc34)ccn2)cc(OC)c1 [83(g), N-(2-aminoethyl)-5-(tert-butyl)-2-methoxy-3-(3-(4-((2-((3-methoxy-5-(2-(2-(2-methoxy-ethoxy)ethoxy)ethoxy)phenyl)amino)pyridin-4-yl)oxy)naphthalen-1-yl)ureido)benzamide]",2200
2,"COCCOCCOCCOc1cc(Nc2nccc(Oc3ccc(NC(=O)Nc4cc(C(C)(C)C)cc(C(=O)N(C)C)c4OC)c4ccccc34)n2)cc(OC)c1 [Example 19, 5-(tert-yl)-)-2-methoxy-3-(3-(4-((2-((3-methoxy-5-(2-(2-(2-methoxyethoxy)ethoxy)-ethoxy)phenyl)amino)pyrimidin-4-yl)oxy)naphthalen-1-yl)ureido-N,N-dimethylbenzamide]",4430
3,"CNC(=O)c1cc(N2CCOCC2)cc(NC(=O)Nc2ccc(Oc3ccnc(Nc4cc(OC)cc(OCCOCCOCCOC)c4)n3)c3ccccc23)c1OC [Example 32, 2-Methoxy-3-(3-(4-((2-((3-methoxy-5(2-(2-(2-methoxyethoxy)ethoxy)ethoxy)phenyl)-amino)pyrimidin-4-yl)oxy)naphthalen-1-yl)ureido)-N-methyl-5-morpholinobenzamide]",629
4,"COCCOCCOCCOc1cc(Nc2nccc(Oc3ccc(NC(=O)Nc4cc(C(C)(C)C)cc(C(=O)NCc5ccccc5)c4OC)c4ccccc34)n2)cc(OC)c1 [Example 38, N-Benzyl-5-(tert-butyl)-2-methoxy-3-(3-(4-((2-((3-methoxy-5-(2-(2-(2-methoxyethoxy)-ethoxy)ethoxy)phenyl)amino)pyrimidin-4-yl)oxy)naphthalen-1-yl)ureido)benzamide]",10700
5,"CCNC(=O)c1cc(C(C)(C)C)cc(NC(=O)Nc2ccc(Oc3ccnc(Nc4cc(OC)cc(OCCOCCOCCOC)c4)n3)c3ccccc23)c1OC [Example 41, 5-(tert-Butyl)-N-ethyl-2-methoxy-3-(3-(4-((2-((3-methoxy-5-(2-(2-(2-methoxyethoxy)-ethoxy)ethoxy)phenyl)amino)pyrimidin-4-yl)oxy)naphthalen-1-yl)ureido)benzamide]",446
